The record followed here is paper PMC3544079 (MedChemComm, 2011).

Where only a bound is given, the exact number is not on record here.

The term Ki denotes a measure of affinity in units of concentration, obtained from inhibition or displacement.

Assay type in all cases: biochemical
The target of test [1] is T1, S. cerevisiae transketolase (Saccharomyces cerevisiae, UniProt P23254).
T1 sequence (P23254 1-680): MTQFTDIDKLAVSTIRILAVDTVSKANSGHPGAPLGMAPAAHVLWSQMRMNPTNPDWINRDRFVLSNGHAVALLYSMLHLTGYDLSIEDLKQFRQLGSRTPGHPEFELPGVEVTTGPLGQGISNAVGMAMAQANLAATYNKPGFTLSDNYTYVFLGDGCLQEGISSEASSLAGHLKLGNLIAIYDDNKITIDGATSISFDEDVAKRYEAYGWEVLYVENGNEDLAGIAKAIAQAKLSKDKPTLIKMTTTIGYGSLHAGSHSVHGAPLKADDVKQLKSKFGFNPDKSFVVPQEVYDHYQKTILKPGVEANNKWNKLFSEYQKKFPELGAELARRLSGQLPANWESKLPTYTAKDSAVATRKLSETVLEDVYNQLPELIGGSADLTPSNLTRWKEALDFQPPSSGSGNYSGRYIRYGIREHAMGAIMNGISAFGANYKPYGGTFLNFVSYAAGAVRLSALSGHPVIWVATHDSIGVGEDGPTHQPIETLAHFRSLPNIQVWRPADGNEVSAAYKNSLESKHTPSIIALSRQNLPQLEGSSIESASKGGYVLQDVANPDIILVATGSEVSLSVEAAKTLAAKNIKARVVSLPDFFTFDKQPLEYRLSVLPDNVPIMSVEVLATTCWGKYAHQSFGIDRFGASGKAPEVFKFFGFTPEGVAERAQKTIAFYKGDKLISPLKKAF
Nature of the test: Inhibition of S. cerevisiae transketolase.

A further test addresses E. coli DXP synthase (Escherichia coli, UniProt P77488). Briefly: E. coli DXP synthase inhibition, spectrophotometric coupled assay. To be noted: with respect to pyruvate.
In test [2] the target is T2, Porcine pyruvate dehydrogenase E1 subunit (Sus scrofa, UniProt P29804).
T2 sequence (P29804 30-390 limits assumed): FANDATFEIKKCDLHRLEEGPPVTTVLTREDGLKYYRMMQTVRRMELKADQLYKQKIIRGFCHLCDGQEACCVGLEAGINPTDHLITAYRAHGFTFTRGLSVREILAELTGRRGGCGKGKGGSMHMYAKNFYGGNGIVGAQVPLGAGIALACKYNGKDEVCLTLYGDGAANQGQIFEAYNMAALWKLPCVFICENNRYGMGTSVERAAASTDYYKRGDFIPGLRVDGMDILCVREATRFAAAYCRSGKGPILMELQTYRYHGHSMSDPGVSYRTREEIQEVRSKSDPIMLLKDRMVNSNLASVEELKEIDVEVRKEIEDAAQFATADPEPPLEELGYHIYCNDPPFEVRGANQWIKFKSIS
Nature of the test: Inhibition of porcine pyruvate dehydrogenase E1 subunit. The note with it: pyruvate varied, 0-1.0 mM BAP.

Sequence of E. coli DXP synthase (P77488 whole entry): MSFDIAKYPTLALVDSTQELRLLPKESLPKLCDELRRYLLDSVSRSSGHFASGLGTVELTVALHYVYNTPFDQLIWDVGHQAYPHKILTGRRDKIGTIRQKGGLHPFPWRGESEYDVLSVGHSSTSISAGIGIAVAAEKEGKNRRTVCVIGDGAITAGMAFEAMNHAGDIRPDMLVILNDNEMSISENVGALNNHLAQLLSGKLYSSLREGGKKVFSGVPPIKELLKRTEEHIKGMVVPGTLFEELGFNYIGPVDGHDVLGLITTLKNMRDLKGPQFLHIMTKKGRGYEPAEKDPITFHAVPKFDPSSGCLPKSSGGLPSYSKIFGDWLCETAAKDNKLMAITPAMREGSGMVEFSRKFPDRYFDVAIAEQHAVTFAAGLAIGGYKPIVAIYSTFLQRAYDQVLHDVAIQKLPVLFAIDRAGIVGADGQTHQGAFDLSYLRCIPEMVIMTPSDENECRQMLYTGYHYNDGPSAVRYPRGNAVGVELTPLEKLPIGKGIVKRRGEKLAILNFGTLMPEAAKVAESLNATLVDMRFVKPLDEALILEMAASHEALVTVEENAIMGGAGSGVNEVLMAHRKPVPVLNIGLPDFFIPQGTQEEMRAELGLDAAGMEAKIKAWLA

As for `COP(=O)([O-])C(C)=O.[Li+]` [Compound 1, Methylacetylphosphonate, reference compound], the Ki in test [1] was over 1000 µM. On E. coli DXP synthase, the mode of inhibition result was “competitive inhibitor against pyruvate”.

In test [1], `CCOP(=O)([O-])C(C)=O.[Li+]` [Compound 2, Ethylacetylphosphonate] came in with a Ki of over 1000 µM. At E. coli DXP synthase, the mode of inhibition result is recorded as “competitive mode of inhibition”.

As to `CCCCOP(=O)([O-])C(C)=O.[Li+]` [Compound 3, butylacetylphosphonate], the mode of inhibition entry in test [2] was “Competitive inhibition”; on E. coli DXP synthase (listed as BAP), “competitive mode of inhibition”. The Ki in test [1] was over 1000 µM.

In the case of `CCC(=O)P(=O)(O)OC` [Compound 4], the Ki in test [1] is over 1000 µM.

As for `CCCC(=O)P(=O)(O)OC` [Compound 5], the inhibition constant Ki in test [1] was over 1000 µM.

`CCCCC(=O)P(=O)(O)OC` [Compound 6] registered a Ki in test [1] of over 1000 µM.
